Data taken from patent US12252490B2, “Inhibiting deubiquitinase USP25 and USP28” (Valo Health, Inc., priority 2018, dated 2025).

target: T1, USP28 (His-tagged USP28-FL-mammalian) (Homo sapiens, UniProt Q96RU2); assay: Ubiquitin-Rhodamine 110 Assay for USP28 Activity, Example A-1(a); type: biochemical; conditions: USP28, 75 pM enzyme, 25 nM Ub-Rh110, 1536-well, 30 min preincubation; read-out: Assay A-1(a) (IC50 range)
T1 construct: Expression of USP28 (1-1077)-TEV-6*His (pTT5 vector) was carried out in Expi293f cells; made in house; host or cells: Expi293f cells (pTT5 vector)
T1 sequence (Q96RU2 1-1077): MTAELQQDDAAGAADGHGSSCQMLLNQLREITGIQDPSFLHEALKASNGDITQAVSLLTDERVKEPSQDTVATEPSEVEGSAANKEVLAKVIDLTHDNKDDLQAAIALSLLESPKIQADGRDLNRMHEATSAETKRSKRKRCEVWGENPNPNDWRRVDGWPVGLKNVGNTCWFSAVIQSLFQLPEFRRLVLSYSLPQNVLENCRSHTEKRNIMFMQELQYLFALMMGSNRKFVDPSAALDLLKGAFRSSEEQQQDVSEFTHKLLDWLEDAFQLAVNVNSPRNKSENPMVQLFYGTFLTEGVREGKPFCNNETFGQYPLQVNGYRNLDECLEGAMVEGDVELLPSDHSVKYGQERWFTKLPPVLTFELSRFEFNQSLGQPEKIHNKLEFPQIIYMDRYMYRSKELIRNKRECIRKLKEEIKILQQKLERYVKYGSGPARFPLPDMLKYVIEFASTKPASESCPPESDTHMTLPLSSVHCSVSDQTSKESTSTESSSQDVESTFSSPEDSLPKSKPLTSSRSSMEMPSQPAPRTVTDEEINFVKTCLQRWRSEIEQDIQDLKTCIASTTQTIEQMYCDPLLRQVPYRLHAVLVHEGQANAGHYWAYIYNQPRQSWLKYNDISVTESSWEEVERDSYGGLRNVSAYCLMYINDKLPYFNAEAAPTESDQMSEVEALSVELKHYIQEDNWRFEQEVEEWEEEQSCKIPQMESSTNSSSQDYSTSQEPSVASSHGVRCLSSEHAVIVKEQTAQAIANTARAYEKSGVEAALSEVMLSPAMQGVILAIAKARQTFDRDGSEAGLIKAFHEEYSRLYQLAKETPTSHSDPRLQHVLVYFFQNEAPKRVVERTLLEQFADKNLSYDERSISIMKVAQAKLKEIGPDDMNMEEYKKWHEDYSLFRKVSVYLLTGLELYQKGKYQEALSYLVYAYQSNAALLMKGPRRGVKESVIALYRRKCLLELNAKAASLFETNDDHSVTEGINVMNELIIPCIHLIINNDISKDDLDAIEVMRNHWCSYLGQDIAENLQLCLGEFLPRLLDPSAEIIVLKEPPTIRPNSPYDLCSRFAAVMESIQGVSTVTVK
Method: The assay was performed in a final volume of 9 μL in assay buffer containing 20 mM Tris-HCl (pH 8.0, (1M Tris-HCl, pH 8.0 solution; Corning 46-031-CM)), 3 mM BME (2-Mercaptoethanol; Sigma 63689-25ML-F), 0.03% BGG (0.22 μM filtered, Sigma, G7516-25G), and 0.01% Triton X-100 (Sigma, T9284-10L). Nanoliter quantities of 10-point, 3-fold serial dilution in DMSO was pre-dispensed into 1536 assay plates (Corning, #3724BC) for a final test concentration of 25 μM to 1.3 nM, top to lowest dose, respectively. Enzyme USP28, construct His-tagged USP28-FL-mammalian, (protein expression and purification procedure described below). Concentration and incubation times were optimized for the maximal signal-to-background while maintaining initial velocity conditions at a fixed substrate concentration. The final concentration of the enzyme in the assay was 75 pM. Final substrate (Ub-Rh110; Ubiquitin-Rhodamine 110, UbiQ-126) concentration was 25 nM with [Ub-Rh110]<<Km. 3 μL of 2× enzyme was added to assay plates (pre-stamped with compound) preincubated with […] for 30 minutes and then 3 μL of 2×Ub-Rh110 was added to assay plates. Plates were incubated for 45 minutes at room temperature before addition of 3 μL of stop solution (final concentration of 10 mM citric acid (Sigma, 251275-500G)). Fluorescence was read on the Envision (Excitation at 485 nm and Emission at 535 nm; Perkin Elmer) or on the PheraSTAR (Excitation at 485 nm and Emission at 535 nm; BMG Labtech).
Expression of USP28 (1-1077)-TEV-6*His (pTT5 vector) was carried out in Expi293f cells (sequence derived from uniprot ID: Q96RU2-1). Cells were re-suspended in lysis buffer B 50 mM Bicine, pH 8.0, 20 mM NaCl, 5% glycerol, 0.1% CHAPS, 5 mM β-ME, 1 mM PMSF, 1 μg/ml Leupeptin, 1 μg/ml Pepstatin) and lysed by sonication. Insoluble material was removed by centrifugation and the supernatant was loaded onto a Ni-NTA column (GE Healthcare) equilibrated with Ni Buffer A (50 mM Bicine, pH 8.0, 20 mM NaCl, 5% glycerol, 0.1% CHAPS, 5 mM β-ME.) and washed with Ni Buffer A+20 mM imidazole until A280 reached baseline. The protein was eluted with Ni Buffer B (50 mM Bicine, pH 8.0, 20 mM NaCl, 5% glycerol, 0.1% CHAPS, 5 mM β-ME, 300 mM imidazole.). The protein was further purified using a Superdex™ 200 10/300 GL column (GE Healthcare) equilibrated with 50 mM Bicine, pH 8.0, 20 mM NaCl, 5% glycerol, 0.1% CHAPS, 5 mM β-ME. The protein was concentrated to 2.5 mg ml^−1, flash-frozen in liquid N2 and stored at −80° C.
For assay formats Examples A-1a, A-1b, and A-2, data were reported as percent inhibition compared with control wells based on the following equation: % inh=1−((FLU−AveLow)/(AveHigh−AveLow)) where FLU=measured Fluorescence, AveLow=average Fluorescence of no enzyme control (n=16), and AveHigh=average Fluorescence of DMSO control (n=16). IC50 values were determined by curve fitting of the standard 4 parameter logistic fitting algorithm included in the Activity Base software package: IDBS XE Designer Model205. Data is fitted using the Levenburg Marquardt algorithm.

Row | Structure (SMILES) | IC50 [nM]
1 | CCn1cc(Cl)c2cc(C(=O)NCCc3ccc(N4CCNCC4)cc3)cnc21 [Example 3-1, 3-Chloro-1-ethyl-N-[2-[4-(piperazin-1-yl)phenyl]ethyl]-1H-pyrrolo[2,3-b]pyridine-5-carboxamide] | 1 to 50
2 | CCn1ccc2cc(C(=O)NC[C@@H](C)c3cc(F)c(N4CCNCC4)cc3F)cnc21 (single isomer, unassigned) [Example 2-1] | 50 to 200
3 | Nc1c(C(=O)NCCc2ccc(N3CCNCC3)cc2)cnc2[nH]ccc12 [Example 1-5, 4-amino-N-(4-(piperazin-1-yl)phenethyl)-1H-pyrrolo[2,3-b]pyridine-5-carboxamide] | 200 to 2000
4 | Cn1ccc2cc(C(=O)NCCc3ccc(N4CCNCC4)cc3)cnc21 [Example 1-3, 1-methyl-N-(4-(piperazin-1-yl)phenethyl)-1H-pyrrolo[2,3-b]pyridine-5-carboxamide] | 200 to 2000
5 | O=C(NCCc1ccc(N2CCNCC2)cc1)c1cnc2c(ccn2CC(F)(F)F)c1 [Example 1-8] | 1 to 50
6 | CCn1ccc2cc(C(=O)NCCc3cc(F)c(N4CC5CCC(C4)N5)cc3F)nnc21 [Example 4-1, N-[2-(4-[3,8-diazabicyclo[3.2.1]octan-3-yl]-2,5-difluorophenyl)ethyl]-7-ethyl-7H-pyrrolo[2,3-c]pyridazine-3-carboxamide] | 1 to 50
7 | CC(C)(O)Cn1ccc2cc(C(=O)NCCc3cc(F)c(N4CC5CCC(C4)N5)cc3F)cnc21 [Example 1-9, N-(4-(3,8-diazabicyclo[3.2.1]octan-3-yl)-2,5-difluorophenethyl)-1-(2-hydroxy-2-methylpropyl)-1H-pyrrolo[2,3-b]pyridine-5-carboxamide] | 2000 to 10000
8 | CCn1cc(Cl)c2cc(C(=O)NCCc3cc(F)c(N4CC5CCC(C4)N5)cc3F)nnc21 [Example 4-4, N-(4-(3,8-diazabicyclo[3.2.1]octan-3-yl)-2,5-difluorophenethyl)-5-chloro-7-ethyl-7H-pyrrolo[2,3-c]pyridazine-3-carboxamide] | 1 to 50
9 | CCn1ccc2cc(C(=O)NC[C@H](C)c3cc(F)c(N4CC5CCC(C4)N5)cc3F)cnc21 (single isomer, unassigned) [Example 2-3] | 1 to 50
10 | CCn1ccc2cc(C(=O)NCCc3ccc(N4CCNCC4)cc3)cnc21 [Example 1-4, 1-ethyl-N-(4-(piperazin-1-yl)phenethyl)-1H-pyrrolo[2,3-b]pyridine-5-carboxamide] | 1 to 50
11 | CCn1ccc2cc(C(=O)NC[C@H](C)c3cc(F)c(N4CCNCC4)cc3F)cnc21 (single isomer, unassigned) [Example 2-2] | 200 to 2000
12 | CCn1ccc2cc(C(=O)NC[C@@H](C)c3cc(F)c(N4CC5CCC(C4)N5)cc3F)cnc21 (single isomer, unassigned) [Example 2-4] | 50 to 200
13 | CCn1ccc2cc(C(=O)NC[C@@H](C)c3cc(F)c(N4CC5CCC(C4)N5)cc3F)nnc21 (single isomer, unassigned) [Example 4-3] | 50 to 200
14 | CCn1ccc2cc(C(=O)NCCc3cc(F)c(N4CC5CCC(C4)N5)cc3F)cnc21 [Example 1-1, N-[2-(4-[3,8-diazabicyclo[3.2.1]octan-3-yl]-2,5-difluorophenyl)ethyl]-1-ethyl-1H-pyrrolo[2,3-b]pyridine-5-carboxamide] | 1 to 50
15 | O=C(NCCc1ccc(N2CCNCC2)cc1)c1cnc2[nH]ccc2c1 [Example 1-2, N-(4-(piperazin-1-yl)phenethyl)-1H-pyrrolo[2,3-b]pyridine-5-carboxamide] | 200 to 2000
16 | O=C(NCCc1ccc(N2CCNCC2)cc1)c1cnc2[nH]cc(Cl)c2c1 [Example 3-2, 3-chloro-N-(4-(piperazin-1-yl)phenethyl)-1H-pyrrolo[2,3-b]pyridine-5-carboxamide] | 200 to 2000
17 | CCn1ccc2cc(C(=O)NCCc3ccc(N4CC5CCC(C4)N5)c(F)c3)cnc21 [Example 1-10, N-(4-(3,8-diazabicyclo[3.2.1]octan-3-yl)-3-fluorophenethyl)-1-ethyl-1H-pyrrolo[2,3-b]pyridine-5-carboxamide] | 1 to 50
18 | CCn1ccc2cc(C(=O)NC[C@H](C)c3cc(F)c(N4CC5CCC(C4)N5)cc3F)nnc21 (single isomer, unassigned) [Example 4-2] | 50 to 200
19 | CCn1ccc2cc(C(=O)NCCc3ccc(N4CC5CCC(C4)N5)cc3)cnc21 [Example 1-6, N-(4-(3,8-diazabicyclo[3.2.1]octan-3-yl)phenethyl)-1-ethyl-1H-pyrrolo[2,3-b]pyridine-5-carboxamide] | 1 to 50
20 | CCn1ccc2cc(C(=O)NCCc3cc(F)c(N4CCNCC4)cc3F)cnc21 [Example 1-7, N-(2,5-difluoro-4-(piperazin-1-yl)phenethyl)-1-ethyl-1H-pyrrolo[2,3-b]pyridine-5-carboxamide] | 1 to 50
